ChEMBL document CHEMBL1153975, “Structure-activity relationships of diverse annonaceous acetogenins against human tumor cells” (Bioorg Med Chem Lett, 2009)

Tests used:
Type in all cases: functional, cell-based
[1] = system: MCF7; experiment: Cytotoxicity against human MCF7 cells after 72 hrs by MTT assay; settings: MCF7, 72 h
[2] = system: SGC-7901; experiment: Cytotoxicity against human SGC7901 cells after 72 hrs by MTT assay; settings: SGC-7901, 72 h
[3] = system: HeLa; experiment: Cytotoxicity against human HeLa cells after 72 hrs by MTT assay
[4] = Cytotoxicity against human A-5408 cells after 72 hrs by MTT assay
[5] = Cytotoxicity against human SMMC-7541 cells after 72 hrs by MTT assay

SMILES	IC50 [1] [nM]	IC50 [2] [nM]	IC50 [3] [nM]	IC50 [4] [nM]	IC50 [5] [nM]
CCCCCC[C@@H](O)CCC[C@@H](O)[C@H]1CC[C@H]([C@H]2CC[C@H]([C@H](O)CCCCCCCCCCCCC3=C[C@@H](C)OC3=O)O2)O1 [Squamocin-D]	2.8	1.6	24	1.8	12
CCCCCCCCCC[C@@H](O)[C@H]1CC[C@H]([C@H]2CC[C@H]([C@H](O)CCCCCCCCCCCCC3=C[C@@H](C)OC3=O)O2)O1 [DEACETYLUVARICIN]	40	43	160	400	140
CCCCCC[C@H](O)CCC[C@H](O)[C@H]1CC[C@H]([C@H]2CC[C@H]([C@H](O)CCCCCCCCCCCCC3=C[C@H](C)OC3=O)O2)O1 [SQUAMOCIN]	0.5	0.73	9.7	0.87	0.09
CCCCCCCCCCCC[C@@H](O)[C@H]1CC[C@H]([C@H](O)CCCCCC(O)CCCCCCC2=C[C@H](C)OC2=O)O1 (some centres undefined)	37	230	1000	320	8.3
CCCCCC[C@@H](O)CCC[C@@H](O)[C@@H]1CC[C@@H]([C@H](O)CC[C@@H](O)[C@@H]2CC[C@@H](CCCCCCCCCC3=C[C@@H](C)OC3=O)O2)O1 [Squamostatin-B]	730	170	380	43	170
CCCCCC[C@@H](O)CCC[C@H](O)[C@@H]1CC[C@@H]([C@H](O)CC[C@@H](O)[C@@H]2CC[C@@H](CCCCCCCCCC3=C[C@@H](C)OC3=O)O2)O1 [Squamostatin-A]	970	97	33	2.6	50
CCCCCCCCCC[C@H](O)[C@@H]1CC[C@@H]([C@H](O)CC[C@@H](O)[C@@H]2CC[C@@H](CCCCCCCCCC3=C[C@@H](C)OC3=O)O2)O1 [Squamostatin-D]	45	180	38	1.4	54
CCCCCCCCCC[C@@H](O)[C@@H]1CC[C@@H]([C@H](O)CC[C@@H](O)[C@@H]2CC[C@@H](CCCCCCCCCC3=C[C@@H](C)OC3=O)O2)O1 [Squamostatin-E]	900	210	270	130	180
COc1cccc2c1C(=O)c1c(O)c3c(c(O)c1C2=O)C[C@@](O)(C(=O)CO)C[C@@H]3O[C@H]1C[C@H](N)[C@H](O)[C@H](C)O1 [DOXORUBICIN]		13	16	26	3.7
CCCCCCCCCCC(O)C1CCC(C2CCC(C(O)CCCCCCCC[C@H](O)CC3=C[C@@H](C)OC3=O)O2)O1 (some centres undefined) [ASIMICIN]	13	4.3	27	3.6	11
CCCCCC[C@@H](O)CCC[C@H](O)[C@@H]1CC[C@@H]([C@H](O)CC[C@@H](O)[C@@H]2CC[C@H](CCCCCCCCCC3=C[C@@H](C)OC3=O)O2)O1	3.3	93	1.3	16	60
CCCCCCCCCC[C@H](O)[C@H]1CC[C@H]([C@H]2CC[C@H]([C@H](O)CCCCCCCCCCCCC3=C[C@@H](C)OC3=O)O2)O1 [ISODESACETYLUVARICIN]	21	84	13	160	16
